As usually defined, the Ki is the equilibrium dissociation constant of an inhibitor or competing ligand from its target. A low value points to a stronger hold on the target. The inhibition is the share of the control response that was lost under treatment. A lower inhibition goes with a response near the control.

This is an account of results in ChEMBL document CHEMBL1124976, “An initial three-component pharmacophore for specific serotonin-3 receptor ligands” (J Med Chem, 1990).

The target of test [1] is T1, 5-hydroxytryptamine receptor 3B (Mus musculus, UniProt Q9JHJ5).
T1 sequence (Q9JHJ5 whole entry): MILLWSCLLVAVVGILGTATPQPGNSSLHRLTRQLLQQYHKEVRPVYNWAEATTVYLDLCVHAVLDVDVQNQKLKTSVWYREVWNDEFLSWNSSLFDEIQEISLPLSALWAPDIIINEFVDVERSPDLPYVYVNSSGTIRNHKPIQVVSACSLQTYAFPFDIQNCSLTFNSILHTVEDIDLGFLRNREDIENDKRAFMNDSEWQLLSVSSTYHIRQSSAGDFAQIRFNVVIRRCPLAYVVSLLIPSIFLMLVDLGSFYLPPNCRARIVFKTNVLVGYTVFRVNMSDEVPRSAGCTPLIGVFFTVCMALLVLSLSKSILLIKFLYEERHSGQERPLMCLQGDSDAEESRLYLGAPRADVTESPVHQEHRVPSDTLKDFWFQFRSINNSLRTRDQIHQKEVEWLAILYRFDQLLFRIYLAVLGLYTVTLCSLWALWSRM
Nature of the test: In vitro binding affinity for the 5-hydroxytryptamine 3 receptor was determined with NG-108-15 mouse neuroblastoma-glioma cells.

Test [2] addresses Serotonin 3 (5-HT3) receptor (Rattus norvegicus) (UniProt P35563+Q9JJ16). Nature of the test: Tested for inhibition of Bezold-Jarisch (B-J) reflex mediated by 5-hydroxytryptamine 3 receptor in rats after intravenous administration (2.0 ug/kg). Format: functional, organism-based.
In test [3] the target is 5-hydroxytryptamine receptor 3A (Mus musculus) (UniProt P23979). Kind of test: In vitro binding affinity for the 5-hydroxytryptamine 3 receptor was determined with NG-108-15 mouse neuroblastoma-glioma cells.
Chain of 5-hydroxytryptamine receptor 3A (Mus musculus) (P23979 whole entry, looked up): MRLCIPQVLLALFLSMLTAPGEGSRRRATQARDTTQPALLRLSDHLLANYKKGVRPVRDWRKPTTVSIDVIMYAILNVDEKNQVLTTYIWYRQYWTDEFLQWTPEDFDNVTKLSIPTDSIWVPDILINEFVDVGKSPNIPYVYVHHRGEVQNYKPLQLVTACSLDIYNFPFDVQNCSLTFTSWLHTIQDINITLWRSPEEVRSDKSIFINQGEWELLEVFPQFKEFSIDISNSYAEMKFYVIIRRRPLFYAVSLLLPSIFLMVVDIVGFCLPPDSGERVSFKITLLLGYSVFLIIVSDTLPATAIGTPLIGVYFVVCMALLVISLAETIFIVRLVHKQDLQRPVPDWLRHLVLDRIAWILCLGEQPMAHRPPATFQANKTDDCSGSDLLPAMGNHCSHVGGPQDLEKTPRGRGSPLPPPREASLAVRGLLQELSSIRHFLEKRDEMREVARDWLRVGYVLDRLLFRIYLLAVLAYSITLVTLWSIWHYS

For the compound `Cc1nc[nH]c1Cc1nc(-c2c[nH]c3ccccc23)cs1`, in test [1], the inhibitory constant (Ki) was 10 nM.
Same read-out and setting: under `CN(Cc1nc(-c2c[nH]c3ccccc23)cs1)C(=N)N` stands above 1 nM; under `Cc1csc(CNC(=N)N)n1`, 116 nM.
Take `Cc1nccn1CC1CCc2c(c3ccccc3n2C)C1=O` (stereo not drawn): in test [2], the inhibition worked out at 43%.
In test [2], `N=C(N)NCc1nc(-c2c[nH]c3ccccc23)cs1` came in with an inhibition of 51%. The compound also displayed a Ki in test [3] of 3.3 nM.
In turn, `COc1cc(N)c(Cl)cc1C(=O)NC1CN2CCC1CC2` (stereo not drawn) gave an inhibition in test [2] of 84%.
For `N=C(N)NCc1ccccn1`, in test [1], the inhibition constant (Ki) is 82 nM. This lies in the double-digit nanomolar range.
